Data on one molecule can be found in US20250283124A1, “POLYHYDROXYALKANOATE-PRODUCING BACTERIA AND METHODS FOR MAKING AND USING THEM” (SAN DIEGO STATE UNIVERSITY (SDSU) FOUNDATION, DBA SAN DIEGO …, priority 2021, published 2025).

The test system of this experiment is LW8. In words: Antibiotic susceptibility testing (antibiotic disks), strain LW8. To be noted: antibiotic disks on solid P0% media, methane:air, one week, disk content as in column head. Type of experiment: cell-based, Methylosinus sp. The procedure:
Antibiotic Resistance Tests: To identify genetic markers suitable for genetic manipulation of PHA producing cultures, an antibiotic-resistance screening using antibiotic disks was performed. All strains were plated onto solid P0% media by spreading, then up to 4 antibiotic disks were placed on top. The plates were incubated under methane:air for one week and then were evaluated.

For the molecule `[H]/N=C(/N)N[C@H]1[C@H](O)[C@@H](O)[C@H](O[C@@H]2O[C@@H](C)[C@](O)(C=O)[C@H]2O[C@@H]2O[C@@H](CO)[C@H](O)[C@@H](O)[C@@H]2NC)[C@@H](N/C(N)=N\[H])[C@@H]1O` [Streptomycin], the “Antibiotic susceptibility testing (AST) results” value is listed as “Resistant”.
